Data as given in EP4623909A1, “PHARMACEUTICAL COMPOSITION FOR TREATING OR RELIEVING COVID-19 AND FORMULATION COMPRISING SAME” (priority 2022, dated 2024).

System: Delta strain of novel coronavirus
Format: in vivo, K18-hACE2 transgenic mice

SMILES: N#C[C@@]1(c2ccc3c(N)ncnn23)O[C@H](COC(=O)C2CCCCC2)[C@@H](O)[C@H]1O [ATV014]
- viral load in the lungs (antiviral effect) ([…], ATV014 100 mg/kg, Compound 1 150 mg/kg, once daily, intragastric, versus vehicle control): significant antiviral effects
- anti-novel coronavirus effects in the mouse model (conclusion, ATV014 100 mg/kg, Compound 1 150 mg/kg): significant anti-novel coronavirus effects
- reduction of viral load (mouse, in vivo): could reduce the viral load to varying degrees
